Results published in patent US20120065267A1, “COMPOSITIONS INCLUDING 3,5-L-T2 AND METHODS OF USE THEREOF” (priority 2010, published 2012).
“And” between values parts separate entries of the source, which are not always exact repeats. Equal values may be shown once.

Legend:
[1] = tested on: C57, LDLr+/− and LDLr0 mice; experiment: Serum triglycerides in mice on Western Diet given daily oral T2; assay type: in vivo; set-up: Triglycerides / Triglycerides (Ave): unit not given here
Procedure: This corresponds to a dosage for an 80 kg human of about 20-200 mg/day, or a low dose of about 0.2-0.3 mg/kg of body weight to a high dose of about 2-3 mg/kg of body weight. One will appreciate, however, that some subjects (e.g., subjects having very low LDL receptor function) may receive higher doses, depending on need. likewise, some subjects may receive lower doses, which again depends on need. Mice in the study were fed a standard lab chow referred to as the “Western Diet.” The overall level of fat and the saturated nature of the fat are representative diets typical in the industrialized west that are linked to risk of cardiovascular disease in humans. The formula is used primarily with genetically manipulated rodent models that are susceptible to high cholesterol and cardiovascular disease. The diet may also be useful in diet-induced obesity, diabetes, and metabolic syndrome models. High cholesterol, obesity, and diabetes are each associated increased risk for cardiovascular disease. The composition of the Western Diet is shown below. C57 is a wild-type strain, LDLr+/− are a strain carrying one functional copy of the LDLr gene, and the LDLr0 animals are total LDLr knockouts. The LDLr gene encodes for the LDL receptor protein, which is responsible for scavenging LDL with bound cholesterol from the blood and transporting it into cells. Both heterozygous and homozygous LDLr knockout animals develop very high serum cholesterol levels and are considered to be a good model for heterozygous and homozygous familial hypercholesterolemia in humans. […] LDLr knockout animals have zero LDL receptor function.

[2] = tested on: TR β gene expression; conditions: relative to T3; cited from earlier work

In the case of `N[C@@H](Cc1cc(I)c(Oc2ccc(O)cc2)c(I)c1)C(=O)O` [T2, (2S)-2-amino-3-[4-(4-hydroxyphenoxy)-3,5-diiodophenyl]propanoic acid], the “Triglycerides (Ave)” value ([1]; C57 mice, 1 Week High Dose, T2 2.5 mg/kg daily oral, group average) is reported as 55.8, the Triglycerides ([1]; C57 mice, 1 Week High Dose, T2 2.5 mg/kg daily oral, individual animal, 2.5 mg/kg) is reported as 42.161 and 68.02 and 45.486 and 50.657 and 72.822 and the “Triglycerides (Ave)” value ([1]; C57 mice, 1 Week Low Dose, T2 0.25 mg/kg daily oral, group average) is reported as 29.5. For the same compound, the Triglycerides ([1]; C57 mice, 1 Week Low Dose, T2 0.25 mg/kg daily oral, individual animal, 0.25 mg/kg) was 24.835 and 29.673 and 13.299 and 36.371 and 43.441, the “Triglycerides (Ave)” value ([1]; LDLr0 mice (first group), 1 Week High Dose, T2 2.5 mg/kg daily oral, group average) was 192.1 and the Triglycerides ([1]; LDLr0 mice (first group), 1 Week High Dose, T2 2.5 mg/kg daily oral, individual animal, 2.5 mg/kg) was 173.672 and 210.614. For the same compound, the “Triglycerides (Ave)” value ([1]; LDLr0 mice (first group), 1 Week Low Dose, T2 0.25 mg/kg daily oral, group average) was 183.0, the Triglycerides ([1]; LDLr0 mice (first group), 1 Week Low Dose, T2 0.25 mg/kg daily oral, individual animal, 0.25 mg/kg) was 230.244 and 106.329 and 212.382 and the “Triglycerides (Ave)” value ([1]; LDLr0 mice (second group), 1 Week Low Dose, T2 0.25 mg/kg daily oral, group average) was 236.2. The Triglycerides ([1]; LDLr0 mice (second group), 1 Week Low Dose, T2 0.25 mg/kg daily oral, individual animal, 0.25 mg/kg) was 183.413 and 260.001 and 239.273 and 268.082 and 244.895 and 177.441 and 263.163 and 252.975, the “Triglycerides (Ave)” value ([1]; LDLr0 mice (second group), 2 Week High Dose (as headed), daily oral T2, group average) was 356.5 and the Triglycerides ([1]; LDLr0 mice (second group), 2 Week High Dose (as headed), daily oral T2, individual animal) was 225.895 and 274.993 and 402.246 and 281.673 and 462.031 and 223.557 and 485.745 and 496.099. The “Triglycerides (Ave)” value ([1]; LDLr+/− mice, 1 Week High Dose, T2 2.5 mg/kg daily oral, group average) was 52.1, the Triglycerides ([1]; LDLr+/− mice, 1 Week High Dose, T2 2.5 mg/kg daily oral, individual animal, 2.5 mg/kg) was 40.683 and 35.511 and 62.848 and 68.389 and 37.359 and 68.02 and the “Triglycerides (Ave)” value ([1]; LDLr+/− mice, 1 Week Low Dose, T2 0.25 mg/kg daily oral, group average) was 31.4. The Triglycerides ([1]; LDLr+/− mice, 1 Week Low Dose, T2 0.25 mg/kg daily oral, individual animal, 0.25 mg/kg) was 12.927 and 34.138 and 40.464 and 29.673 and 31.161 and 40.092, the “effect on serum triglyceride levels” value ([1]; low and high dose T2, all genotypes) was “did not affect” and the “less potent than T3 in decreasing TR β gene expression” value [2] was 50%.
